Where “and” joins values, the source holds several entries; their conditions need not be identical. Identical values can stand only once.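 Each compound was tested at five concentrations against cells in 96-well plates for 48 hours. At the GI50, growth is halved. The concentration for full growth arrest is given as TGI.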
Experiments:
Test in all cases: NCI anticancer screen, dose series, 48 h
UACC-62 melanoma = system: UACC-62 melanoma
HCT-15 colon = system: HCT-15 colon
MDA-N = system: MDA-N
MCF7 breast = system: MCF7 breast
MDA-MB-231 breast = system: MDA-MB-231 breast
HL-60(TB) leukemia = system: HL-60(TB) leukemia
HOP-92 NSCLC = system: HOP-92 NSCLC
SF-295 CNS = system: SF-295 CNS
COLO 205 colon = system: COLO 205 colon
DU-145 prostate = system: DU-145 prostate
SN12C renal = system: SN12C renal
PC-3 prostate = system: PC-3 prostate
HCC-2998 colon = system: HCC-2998 colon

## C/C(=C/CC[C@]1(CO)CC[C@]2(C)[C@H](CC[C@@H]3[C@@]4(C)CC[C@H](OC5OC(CO)C(O)C(O)C5OC5OC(CO)C(O)C(O)C5O)C(C)(C)[C@@H]4CC[C@]32C)[C@H]1O)CO (stereo partly specified)
UACC-62 melanoma
  TGI: > 100 µM
HCT-15 colon
  TGI: > 100 µM
MDA-N
  TGI: > 100 µM
MCF7 breast
  TGI: > 100 µM
MDA-MB-231 breast
  TGI: > 100 µM
HL-60(TB) leukemia
  TGI: > 100 µM
HOP-92 NSCLC
  TGI: > 100 µM
SF-295 CNS
  TGI: > 100 µM
COLO 205 colon
  TGI: > 100 µM
DU-145 prostate
  TGI: > 100 µM
SN12C renal
  TGI: > 100 µM
PC-3 prostate
  TGI: > 100 µM

## Cc1cc2nc3c(C#N)c4c(c(-c5ccc(Cl)cc5)n3c2cc1C)CCC4
UACC-62 melanoma
  TGI: 33.9 µM
HCT-15 colon
  TGI: 70.3 µM
MDA-N
  TGI: 88 µM
MCF7 breast
  TGI: > 100 µM
MDA-MB-231 breast
  TGI: 49.1 µM
HL-60(TB) leukemia
  TGI: 48.3 µM
HOP-92 NSCLC
  TGI: 50.7 µM
SF-295 CNS
  TGI: 39.8 µM
COLO 205 colon
  TGI: 39.1 µM
DU-145 prostate
  TGI: 44 µM
SN12C renal
  TGI: 75.4 µM
PC-3 prostate
  TGI: 97.7 µM

## O=c1[nH]c(NCc2ccc(Cl)cc2)nc2nc[nH]c12
UACC-62 melanoma
  TGI: > 100 µM
HCT-15 colon
  TGI: > 100 µM
MDA-N
  TGI: > 100 µM
MCF7 breast
  TGI: > 100 µM
MDA-MB-231 breast
  TGI: > 100 µM
HOP-92 NSCLC
  TGI: > 100 µM
HCC-2998 colon
  TGI: > 100 µM
SF-295 CNS
  TGI: > 100 µM
COLO 205 colon
  TGI: > 100 µM
DU-145 prostate
  TGI: > 100 µM
SN12C renal
  TGI: > 100 µM
PC-3 prostate
  TGI: > 100 µM

## CC(C)C1=CC(=O)[C@@](C)(C2[C@H](O)C[C@@]3(C)[C@@H]4CC=C5[C@@H](CC[C@@H](OC6OCC(O)C(O)C6OC6OC(C)C(O)C(O)C6O)C5(C)C)[C@]4(C)C(=O)C[C@]23C)O1 (stereo partly specified)
UACC-62 melanoma
  TGI: > 100 µM
HCT-15 colon
  TGI: > 100 µM
MDA-N
  TGI: > 100 µM
MCF7 breast
  TGI: > 100 µM
MDA-MB-231 breast
  TGI: > 100 µM
HOP-92 NSCLC
  TGI: > 100 µM
HCC-2998 colon
  TGI: > 100 µM
SF-295 CNS
  TGI: > 100 µM
COLO 205 colon
  TGI: > 100 µM
DU-145 prostate
  TGI: > 100 µM
SN12C renal
  TGI: > 100 µM
PC-3 prostate
  TGI: > 100 µM

## CC1=CP(=O)(c2c(C(C)C)cc(C(C)C)cc2C(C)C)CCC1Cl (stereo unspecified)
UACC-62 melanoma
  TGI: 26.1 µM
HCT-15 colon
  TGI: 39.8 µM
MDA-N
  TGI: 46.7 µM
MCF7 breast
  TGI: 35.5 µM
MDA-MB-231 breast
  TGI: 30.7 µM
HL-60(TB) leukemia
  TGI: 42.8 µM
HOP-92 NSCLC
  TGI: 31 µM
SF-295 CNS
  TGI: 27.4 µM
COLO 205 colon
  TGI: 29.8 µM
DU-145 prostate
  TGI: 37.1 µM
SN12C renal
  TGI: 34.7 µM
PC-3 prostate
  TGI: 28 µM

## COc1ccc(C2C(=O)c3c(OC)cc(OC)cc3OC2c2cccnc2)cc1 (stereo unspecified)
UACC-62 melanoma
  TGI: > 100 µM
HCT-15 colon
  TGI: > 100 µM
MDA-N
  TGI: > 100 µM
MCF7 breast
  TGI: > 100 µM
MDA-MB-231 breast
  TGI: > 100 µM
HCC-2998 colon
  TGI: > 100 µM
SF-295 CNS
  TGI: > 100 µM
COLO 205 colon
  TGI: > 100 µM
DU-145 prostate
  TGI: > 100 µM
SN12C renal
  TGI: > 100 µM
PC-3 prostate
  TGI: > 100 µM

## COC(=O)C1(SC)C2CCC3C2CCC31 (stereo unspecified)
HCT-15 colon
  TGI: > 100 µM
MDA-N
  TGI: > 100 µM
MCF7 breast
  TGI: > 100 µM
MDA-MB-231 breast
  TGI: > 100 µM
HL-60(TB) leukemia
  TGI: > 100 µM
HOP-92 NSCLC
  TGI: > 100 µM
HCC-2998 colon
  TGI: > 100 µM
SF-295 CNS
  TGI: > 100 µM
COLO 205 colon
  TGI: > 100 µM
DU-145 prostate
  TGI: > 100 µM
SN12C renal
  TGI: > 100 µM
PC-3 prostate
  TGI: > 100 µM

## COc1cc2c(cc1OC)C(=O)/C(=C/c1cc(C)cc(C)c1)C2
UACC-62 melanoma
  TGI: > 84 µM
HCT-15 colon
  TGI: > 47.8 µM
MDA-N
  TGI: 0.0621 µM
MCF7 breast
  TGI: > 31.9 µM
MDA-MB-231 breast
  TGI: 7.44 µM
HOP-92 NSCLC
  TGI: > 100 µM
HCC-2998 colon
  TGI: 2.14 µM
COLO 205 colon
  TGI: 0.346 µM
DU-145 prostate
  TGI: 6.23 µM
SN12C renal
  TGI: 32.6 µM
PC-3 prostate
  TGI: 24.2 µM

## Brc1cccc(C2ON=C(c3ccccc3)N2C23CC4CC(CC(C4)C2)C3)c1 (stereo unspecified)
UACC-62 melanoma
  TGI: > 10 µM
HCT-15 colon
  TGI: > 10 µM
MDA-N
  TGI: > 10 µM
MCF7 breast
  TGI: > 10 µM
MDA-MB-231 breast
  TGI: > 10 µM
HOP-92 NSCLC
  TGI: > 10 µM
HCC-2998 colon
  TGI: > 10 µM
SF-295 CNS
  TGI: > 10 µM
COLO 205 colon
  TGI: > 10 µM
DU-145 prostate
  TGI: > 10 µM
SN12C renal
  TGI: > 10 µM
PC-3 prostate
  TGI: > 10 µM

## CNc1ncnc2c1nc(NC1CCCC1)n2C1OC(CO)C(O)C1O (stereo unspecified)
UACC-62 melanoma
  TGI: > 100 µM
HCT-15 colon
  TGI: > 100 µM
MDA-N
  TGI: > 100 µM
MCF7 breast
  TGI: > 100 µM
MDA-MB-231 breast
  TGI: > 100 µM
HOP-92 NSCLC
  TGI: > 100 µM
HCC-2998 colon
  TGI: > 100 µM
SF-295 CNS
  TGI: > 100 µM
COLO 205 colon
  TGI: > 100 µM
DU-145 prostate
  TGI: > 100 µM
SN12C renal
  TGI: > 100 µM
PC-3 prostate
  TGI: > 100 µM

## C/C(=N\Nc1nc2ccccc2s1)c1cc2ccccc2cn1
UACC-62 melanoma
  TGI: 21.1 µM
HCT-15 colon
  TGI: 34.3 µM
MDA-N
  TGI: > 100 µM
MCF7 breast
  TGI: > 100 µM
MDA-MB-231 breast
  TGI: 33.9 µM
HOP-92 NSCLC
  TGI: 93.6 µM
HCC-2998 colon
  TGI: 27.2 µM
SF-295 CNS
  TGI: 19.3 µM
COLO 205 colon
  TGI: 13.3 µM
DU-145 prostate
  TGI: 12.6 µM
SN12C renal
  TGI: 30.8 µM
PC-3 prostate
  TGI: > 100 µM

## CN(C)c1ccc(/C=C/c2sc3ccccc3[n+]2C)cc1
UACC-62 melanoma
  GI50: 3.87 µM and 1.48 µM
  TGI: 17 µM and 5.87 µM
HCT-15 colon
  TGI: 29.3 µM and 24.2 µM
MDA-N
  TGI: 7.36 µM
MCF7 breast
  GI50: 3.94 µM and 1.46 µM
  TGI: 17.6 µM and 7.41 µM
MDA-MB-231 breast
  GI50: 2 µM and 7.25 µM
  TGI: 10.1 µM and 33.8 µM
HOP-92 NSCLC
  TGI: 5.34 µM and 8.69 µM
HCC-2998 colon
  GI50: 11.2 µM and 1.48 µM
  TGI: 25.7 µM and 17.3 µM
SF-295 CNS
  TGI: 24.8 µM and 23.1 µM
COLO 205 colon
  GI50: 0.185 µM
  TGI: 0.377 µM
DU-145 prostate
  GI50: 2.57 µM and 0.532 µM
  TGI: 13.2 µM and 11.2 µM
SN12C renal
  GI50: 1.71 µM and 0.645 µM
  TGI: 7.6 µM and 15.7 µM
PC-3 prostate
  TGI: 10.9 µM and 22.8 µM

## COC1C(N(C)C)=C(c2ccccc2)C(=O)N2CCc3ccccc3C12 (stereo unspecified)
UACC-62 melanoma
  TGI: > 100 µM
HCT-15 colon
  TGI: > 100 µM
MDA-N
  TGI: > 100 µM
MCF7 breast
  TGI: > 100 µM
MDA-MB-231 breast
  TGI: > 100 µM
HL-60(TB) leukemia
  TGI: > 100 µM
HOP-92 NSCLC
  TGI: > 100 µM
SF-295 CNS
  TGI: > 100 µM
COLO 205 colon
  TGI: > 100 µM
DU-145 prostate
  TGI: > 100 µM
SN12C renal
  TGI: > 100 µM
PC-3 prostate
  TGI: > 100 µM

From PubChem BioAssay (NCI)
